The values below come from US8143265B2, “Method of treating atherosclerosis” (Meharry Medical College, priority 2007, dated 2012).

Series [1] relates to mouse peritoneal macrophages. Nature of the series: E−/B48 lipoprotein degradation and lipoprotein and cholesterol ester accumulation in MPMs. In kind it is cell-based. The conditions noted are these: addition to culture medium or transfection, data not shown. From the text: 4. Inhibition of eIF-2α phosphorylation increases macrophage lipoprotein degradation, and suppresses cholesterol ester and lipoprotein accumulation in macrophages. We observed that E^−/B48 lipoproteins induced a time-related accumulation of cholesterol ester and lipoproteins in MPMs, which is associated with a reduced degradation rate of E^−/B48 lipoproteins. The addition of 2-AP to culture medium or transfection of a nonphosphorylatable eIF-2α mutant to MPMs enhances E^−/B48 lipoprotein degradation, and reduces E^−/B48 lipoprotein and cholesterol ester accumulation (data not shown).

Series [2] relates to lysosomal hydrolases, including cathepsin B and lysosomal acid lipase. Nature of the series: E−/B48 lipoprotein-induced suppression of lysosomal hydrolases in MPMs. In kind it is cell-based, mouse. To be noted: data not shown. From the text:
5. Inhibition of eIF-2α phosphorylation attenuates E^−/B48 lipoprotein-induced suppressive effect on lysosomal hydrolases. […] We also observed that 2-AP and the nonphosphorylatable eIF-2α mutant attenuated the suppressive effect of E^−/B48 lipoproteins on lysosomal hydrolases (data not shown). It is highly likely that E^−/B48 lipoprotein-induced eIF-2α phosphorylation down-regulates macrophage lysosomal hydrolases, which in turn reduces the degradation of the lipid and protein components of E^−/B48 lipoproteins, leading to lipoprotein accumulation in the lysosomes and triggering foam cell formation.

The next series concerns eIF-2α phosphorylation. Nature of the series: E−/B48 lipoprotein-induced eIF2α phosphorylation in MPMs. Format: cell-based, mouse. To be noted: addition to culture medium or transfection, data not shown. From the text: 3. ApoE-deficient lipoproteins induce eIF-2α phosphorylation. […] We also observed that addition of 2-AP to culture medium or transfection of a nonphosphorylatable eIF2α mutant to MPMs attenuated E^−/B48 lipoprotein-induced eIF2α phosphorylation (not shown).

For a further series, the system named is ApoE−/− mice. Nature of the series: Atherosclerosis development in ApoE−/− mice with oral feeding of 2-AP. Format: in vivo, mouse. On the procedure: FIG. 1. ApoE^−/− mice at 5 weeks of age were treated with 200 mg/kg BW of 2-AP or equal volume of water as control via gavage feeding. This procedure was repeated once every other day for […]. A. Heart-aorta samples were collected from mice at 6 months of age (n=12 for each group of mice). Sequential 8-μm thick sections were cut from the mouse aortic root. The area (μm^2) of atherosclerotic lesions in the section was measured. B. Aortas from the aortic root to the iliac bifurcation were collected, and the area of atherosclerotic lesions and the total area of the aortic surface were measured, data are expressed as the percent of aortic surface area covered by atherosclerotic lesions. Data are expressed as the mean±SEM. *P<0.05 as compared to untreated control mice. 1. Inhibition of eIF-2α phosphorylation by 2-AP delays the development of atherosclerosis in ApoE^−/− mice: We find that oral feeding of 2-AP reduces the mean size of atherosclerotic lesions in the aorta root and the aorta tree by about 45% and 37%, respectively. […] These findings provide evidence that development of atherosclerosis in ApoE^−/− mice is associated with an increased eIF-2α phosphorylation and that inhibition of eIF-2α phosphorylation via in vivo treatment with 2-AP delays the development of atherosclerosis.

Series [3] deals with mouse peritoneal macrophages. As to the kind of experiment: E−/B48 lipoprotein-induced foam cell formation, confocal microscopy of DiI and LysoTracker staining. In kind it is cell-based. To be noted: MPMs, 20 μg/ml DiI-labeled E−/B48 lipoproteins plus 2 mM 2-AP, 48 hrs. Here is the method: FIG. 2. Mouse peritoneal macrophages were treated with 20 μg/ml DiI-labeled E^−/B48 lipoproteins, 20 μg/ml E^−/B48 lipoproteins plus 2 mM 2-AP, or culture medium alone (control) for 48 hrs. The cells were then stained with LysoTracker, which is used to localize lysosomes. Confocal microscopy images were captured, and the merged images are an overlay of the differential interference contrast (DIC) images and the fluorescence images of intracellular DiI and LysoTracker staining. Co-localization of DiI and LysoTracker staining indicates lipoprotein accumulation in the lysosomes. 2. Inhibition of eIF-2α phosphorylation by 2-AP represses E^−/B48 lipoprotein-induced foam cell formation in vitro. We previously reported that incubation of mouse peritonea macrophages (MPMs) with E^−/B48 lipoproteins induces lipid droplet accumulation in the cytoplasm. In some cells, E^−/B48 lipoproteins caused the cytoplasm to be almost entirely accumulated lipids, giving these cells a foam cell like appearance^12. In the present study, we used a confocal microscopy to localize the accumulated lipids in MPMs and to assess the effect of 2-AP on this localization.

The subject of a further series is mRNA translation. Nature of the series: E−/B48 lipoprotein-induced suppression of mRNA translation. Format: cell-based. The conditions noted are these: data not shown. From the text:
6. Inhibition of eIF-2α phosphorylation attenuates E^−/B48 lipoprotein-induced suppression on mRNA translation. We observed that E^−/B48 lipoproteins reduced lysosomal hydrolases, due mainly to suppressing the translation of mRNAs encoding these proteins, and that 2-AP attenuated the suppressive effect of E^−/B48 lipoproteins on mRNA translation (data not shown).

[4] abbreviates: ApoE−/− mice, 200 mg/kg BW 2-AP by gavage once every other day for 24 weeks, vs untreated control.
The mark [5] stands for this setting: ApoE−/− mice, 200 mg/kg BW once every other day for 24 weeks, 6-hr fasting.

Take `Nc1ncc2[nH]cnc2n1` [2-AP, 7H-purin-2-amine]: in series [1], the “E−/B48 lipoprotein accumulation” value is reported as “reduces”, the “E−/B48 lipoprotein degradation” value is “enhances” and the cholesterol ester accumulation result is “reduces”. Also, the “suppressive effect of E−/B48 lipoproteins on lysosomal hydrolases” value in series [2] is listed as “attenuated”. For the same compound, the “E−/B48 lipoprotein-induced eIF2α phosphorylation” value in the series with eIF-2α phosphorylation is reported as “attenuated”. Also, in the series on ApoE−/− mice (2-AP treatment of ApoE−/− mice), the body weight result is “did not alter” and the food intake entry was “did not alter”. Moreover, the “advanced lesions (e.g., fibrous caps and acellular areas)” value with ApoE−/− mice (2-AP-treated ApoE−/− mice) is recorded as “reduced markedly”. In the series on ApoE−/− mice (setting [4]), the “reduction of mean size of atherosclerotic lesions in the aorta root” value was “about 45%” and the “reduction of mean size of atherosclerotic lesions in the aorta tree” value is listed as around 37%. In the series on ApoE−/− mice (setting [5]), the plasma glucose levels result is given as “did not alter”, the plasma insulin levels entry is listed as “did not alter” and the plasma lipid levels result is “did not alter”. Further, in the series with ApoE−/− mice (immunohistology, 2-AP-treated vs untreated ApoE−/− mice), the “phosphorylated eIF-2α immunostaining in the atherosclerotic lesions” value is listed as “significantly reduced”. The “level of staining with DiI (intralysosomal lipid accumulation)” value in series [3] was “markedly reduced”. Moreover, the “suppressive effect of E−/B48 lipoproteins on mRNA translation” value in the series on mRNA translation was “attenuated”.
